Results: patent publication US7608589B2, “Peptidyl diacylglycerides” (priority 2005, dated 2009)

System: immunoglobulin titers (IgG and IgM) specific for M. tuberculosis
Set-up: species or system rabbits
Details: rabbit, in vivo, sc

FNNFTVSFWLRVPKVSASHLE [FNN-21, reference compound]
immunoglobulin titer, average absorbance, Day 1: 0.14 AU 405 nm
immunoglobulin titer, average absorbance, Day 3: 0.15 AU 405 nm
immunoglobulin titer, average absorbance, Day 5: 0.13 AU 405 nm
immunoglobulin titer, average absorbance, Day 7: 0.16 AU 405 nm
immunoglobulin titer, average absorbance, Day 10: 0.25 AU 405 nm
immunoglobulin titer, average absorbance, Day 14: 0.35 AU 405 nm
